Reference: PMC1892040 (PLoS Medicine, 2007)
Entries after “also recorded” stand apart in the source; their conditions may differ. Like-named read-outs stand apart in the source and are kept apart here.

Assays:
[1] = system: schistosomula and juvenile liver stage parasites; assay: Survival of larval and juvenile parasites in culture with AF; type: cell-based, Schistosoma mansoni; conditions: AF at concentrations as low as 5 μM
Source text: Percutaneous infection of outbred mice (NIH Swiss or Swiss-Webster) with S. mansoni cercariae (NMRI strain) obtained from infected Biomphalaria glabrata snails, perfusion of adult worms (6–7 wk) and juvenile worms (23 d) and preparation of schistosomula from cercariae were as described. This study was approved by the Institutional Animal Care and Use Committee of Illinois State University (08–2002; Department of Health and Human Services animal welfare assurance number A3762–01).
Figure 6 Survival of Schistosomula, Adult Worms, and Myeloma Cells in the Presence of Auranofin or Potassium Antimonyl Tartrate (A) Cultured schistosomula treated with 0 μM AF (dashed line); AF 0.5 μM (♦); 1 μM (*); 2 μM (x); 5 μM (▴); 10 μM. (B) Survival of adult Schistosoma mansoni worms at 24 h (dashed line), myeloma cells at 24 h; and myeloma cells at 5 d (♦) at given concentrations of AF. (C) As in (B) in the presence of given concentrations of PAT. Each treatment was done in triplicate and each experiment was done three times. Error bars show the standard deviation of the three replicate experiments.

S. mansoni TGR [2] = molecular target: T1, S. mansoni TGR (Schistosoma mansoni, UniProt Q962Y6); assay: IC50, Grx activity of TGR (HED assay), 15 min preincubation; type: biochemical; set-up: The entire TGR ORF plus the SECIS element was subcloned into pET-24a; made in house; host or cells: Escherichia coli BL21(DE3) with pSUABC; conditions: 8 mM HED plus 1 mM GSH, 15 min preincubation with 100 μM NADPH
T1 sequence (Q962Y6 1-598): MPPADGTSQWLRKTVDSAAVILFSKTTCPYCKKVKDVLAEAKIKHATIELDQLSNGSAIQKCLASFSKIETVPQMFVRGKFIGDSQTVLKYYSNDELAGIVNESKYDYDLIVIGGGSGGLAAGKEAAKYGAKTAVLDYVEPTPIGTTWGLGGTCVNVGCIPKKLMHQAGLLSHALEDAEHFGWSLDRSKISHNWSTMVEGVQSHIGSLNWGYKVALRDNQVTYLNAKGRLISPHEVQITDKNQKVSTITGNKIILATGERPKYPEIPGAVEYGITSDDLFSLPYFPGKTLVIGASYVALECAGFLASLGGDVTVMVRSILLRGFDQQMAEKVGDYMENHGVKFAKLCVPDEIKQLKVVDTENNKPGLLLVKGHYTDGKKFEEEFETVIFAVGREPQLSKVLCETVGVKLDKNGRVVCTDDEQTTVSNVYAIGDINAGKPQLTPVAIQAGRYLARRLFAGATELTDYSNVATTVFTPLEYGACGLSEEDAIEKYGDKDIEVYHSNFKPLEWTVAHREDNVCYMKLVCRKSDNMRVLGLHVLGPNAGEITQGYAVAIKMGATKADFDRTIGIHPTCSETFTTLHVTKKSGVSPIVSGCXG
Method: (§1) Assays were performed at 25 °C in 0.1 M potassium phosphate (pH 7.4), 10 mM EDTA using 100 μM NADPH unless otherwise stated.
(§2) Initial inhibitor screens were conducted in 200 μl volumes in 96 well plates with 50 μM inhibitor, 100 μM NADPH, and 5 nM TGR in 0.1 M potassium phosphate (pH 7.4), 10 mM EDTA with a preincubation step of 15 min. […] All assays were done in triplicate.

[3] = Tolerability of AF dosage in mice; type: in vivo; conditions: 6 mg/kg twice daily for 9 d
Method: Mice (14-wk-old females; C57BL/6 in experiment 1, NIH-Swiss in experiment 2) infected with 60 S. mansoni cercariae were injected intraperitoneally with 6 mg/kg of AF twice daily for 9 d, beginning 7 wk post infection. Infected control mice were injected with equal amounts of carrier. Mice were perfused 1 wk after the final dose of AF and worm burdens were determined.

Human TrxR = molecular target: T2, Human TrxR (Homo sapiens, UniProt Q16881); conditions: read-out: IC50 Human TrxR, DTNB/Trx; cited from earlier work
T2 sequence (Q16881 1-499 isoform Q16881-5): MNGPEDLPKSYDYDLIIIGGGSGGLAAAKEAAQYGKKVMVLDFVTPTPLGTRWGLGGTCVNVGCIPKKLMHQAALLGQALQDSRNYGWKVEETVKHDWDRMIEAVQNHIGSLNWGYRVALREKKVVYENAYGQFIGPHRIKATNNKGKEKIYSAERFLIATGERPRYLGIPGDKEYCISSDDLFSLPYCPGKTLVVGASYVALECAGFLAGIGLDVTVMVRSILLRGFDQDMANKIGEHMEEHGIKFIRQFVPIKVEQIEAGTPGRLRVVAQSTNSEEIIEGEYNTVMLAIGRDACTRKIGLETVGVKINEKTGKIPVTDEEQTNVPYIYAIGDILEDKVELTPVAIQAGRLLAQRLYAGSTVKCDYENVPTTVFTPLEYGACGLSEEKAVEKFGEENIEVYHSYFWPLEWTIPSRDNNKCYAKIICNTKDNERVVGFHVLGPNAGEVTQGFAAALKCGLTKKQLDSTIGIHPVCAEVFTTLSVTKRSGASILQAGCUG

schistosomula = assay: Schistosomula survival after RNAi and/or drug treatment; type: cell-based, Schistosoma mansoni; conditions: AF at 2 μM; TGR dsRNA
Method: Cercariae were mechanically transformed to schistosomula by vortexing, and bodies were separated from tails by Percoll gradient centrifugation as described [13]. Immediately after transformation, TGR dsRNA or irrelevant dsRNA (each at 54 μg/ml) was added to ~500 schistosomula in 50 μl water followed by incubation at 37 °C for 30 min. After addition of 250 μl of RPMI-1640 medium, 300 U/ml penicillin, and 175 μg/ml streptomycin, parasites were incubated at 37 °C in 5% CO2 atmosphere for 4 d. Reduced O2 tension was obtained by filtering media and purging with 95% N2, 5% CO2 for 20 min before use. Parasites were cultured during the course of the experiment in the appropriate gaseous mix at 37 °C in a sealed modular incubator chamber (Billups-Rothenberg, http://www.brincubator.com) flushed with the same gaseous mix. On day 2 of the experiment, 50 μl of fresh media was added. Schistosomula were assessed daily for viability by microscopy. For each time point at least 1,500 parasites were scored as alive or dead in each experiment (three replicates of 500 each), and each experiment was repeated three times.
(B) Parasites were cultured in the presence of double-stranded TGR RNA (dashed lines) or of double-stranded irrelevant RNA (solid lines) in 20% O2 (♦) or 0% O2 (). […] (C) Combination of RNAi and drug treatments. Solid lines are irrelevant dsRNA treatments and dashed lines are dsTGR treatments; no additions (♦), 2 μM praziquantel () and 2 μM AF (▴). […] In each experiment for each time point at least 1,500 parasites were scored as alive or dead (three replicates of 500 parasites). The error bars represent the standard deviations of three independent experiments.

S. mansoni TGR [4] = molecular target: T1, S. mansoni TGR; type: biochemical; set-up: The entire TGR ORF plus the SECIS element was subcloned into pET-24a; made in house; host or cells: Escherichia coli BL21(DE3) with pSUABC; conditions: read-out: IC50 S. mansoni TGR, GSSG (GR activity); 100 μM GSSG, 15 min preincubation with 100 μM NADPH
Method: as §1, §2

[5] = system: adult Schistosoma mansoni worms; assay: Inhibitor studies on cultured adult worms (unpairing, mortality); type: cell-based
Method: […] Control worms were treated with equal amounts of carrier. Worms were subsequently observed for unpairing, motility, and mortality, and were collected at the indicated time intervals for analysis. Worms were homogenized by sonication in PBS and homogenates were assayed for TrxR and GR activities as described above. […] Each assay was done in triplicate and each experiment was done three times.

GSH peroxidase (GPx) = assay: GPx activity in homogenates of treated worms; type: cell-based, Schistosoma mansoni; conditions: 10 μM AF

In the case of `CC(=O)OC[C@H]1O[C@@H]([S-])[C@H](OC(C)=O)[C@@H](OC(C)=O)[C@@H]1OC(C)=O.CCP(CC)CC.[Au+]` [AF, auranofin], the “Time to kill larval, skin stage and juvenile liver stage parasites” value [1] is reported as “less than 10 h”, the IC50 (S. mansoni TGR [2]) is reported as 6 nM and the Tolerability in mice [3] is reported as “well tolerated”. For the same molecule, the IC50 (Human TrxR) was 20 nM, the “Schistosomula survival after 1 d” value (schistosomula) was 93.7% and the “Schistosomula survival after 2 d” value (schistosomula) was 66.1%. The IC50 (S. mansoni TGR [4]) was 9 nM, the “Time to adult worm death” value ([5]; 5 μM AF) was 24 h and the “Mortality of adult worms after 6 h” value ([5]; 10 μM AF) was 83%. The “Mortality of adult worms after 9 h” value ([5]; 10 μM AF) was 100%, the “Time to unpairing of male and female worms” value ([5]; 10 μM AF) was 1 h and the “Concentration able to kill parasites rapidly in culture” value ([5]; physiological concentration, abstract) was 5 µM. For the same molecule, the “GPx activity in worm homogenates” value (GSH peroxidase (GPx)) was “no significant deviation from controls; also recorded: not inhibited”.
